Experimental data from ChEMBL document CHEMBL1151328, “Novel cytotoxic acylated oligorhamnosides from Mezzettia leptopoda” (1998).
Converted amounts (≈) assume the structure as drawn. The source made the active and inactive calls. The rule behind the calls is not given here.

Assays:
[1] = tested on: ASK; assay: Antimitotic activity in rat ASK cells at 100 ug/mL; format: functional, cell-based
[2] = tested on: LNCaP; assay: Cytotoxicity against human LNCAP cells; format: functional; conditions: read-out: ED50 (the source's name)
[3] = tested on: Lu1; assay: Cytotoxicity against human Lu1 cells; format: functional; conditions: read-out: ED50 (the source's name)
[4] = tested on: KB; assay: Cytotoxicity against human drug-resistant KB cells in absence of vinblastine; format: functional; conditions: read-out: ED50 (the source's name)
[5] = tested on: KB; assay: Cytotoxicity against human KB cells; format: functional; conditions: read-out: ED50 (the source's name)
[6] = tested on: Col2; assay: Cytotoxicity against human Col2 cells; format: functional; conditions: read-out: ED50 (the source's name)
[7] = tested on: KB; assay: Cytotoxicity against human drug-resistant KB cells in presence of 1 ug/mL vinblastine; format: functional; conditions: read-out: ED50 (the source's name)
[8] = Cytotoxicity against human BC1 cells; format: functional; conditions: read-out: ED50 (the source's name)

| Structure (SMILES) | Activity [1] | EC50 [2] [µg/mL] | EC50 [3] [µg/mL] | EC50 [4] [µg/mL] | EC50 [5] [µg/mL] | EC50 [6] [µg/mL] | EC50 [7] [µg/mL] | EC50 [8] [µg/mL] |
| --- | --- | --- | --- | --- | --- | --- | --- | --- |
| CCCCCCCCO[C@@H]1O[C@@H](C)[C@H](OC(=O)CCCCC)[C@@H](O[C@@H]2O[C@@H](C)[C@H](OC(C)=O)[C@@H](O[C@@H]3O[C@@H](C)[C@H](OC(C)=O)[C@@H](O)[C@H]3OC(C)=O)[C@H]2OC(C)=O)[C@H]1O [MEZZETTIASIDE 2] | inactive | > 20 | 8.6 (≈ 10.3 µM) | > 20 | 6.2 (≈ 7.43 µM) | 4.3 (≈ 5.15 µM) | > 20 | > 20 |
| CCCCCCCCO[C@@H]1O[C@@H](C)[C@H](OC(=O)CCCCC)[C@@H](O[C@@H]2O[C@@H](C)[C@H](OC(C)=O)[C@@H](O[C@@H]3O[C@@H](C)[C@H](OC(C)=O)[C@@H](OC(C)=O)[C@H]3O)[C@H]2OC(C)=O)[C@H]1O [MEZZETTIASIDE 3] | inactive | > 20 | 11.8 (≈ 14.1 µM) | > 20 | 14.3 (≈ 17.1 µM) | 4.9 (≈ 5.87 µM) | > 20 | > 20 |
| CCCCCCCCO[C@@H]1O[C@@H](C)[C@H](OC(=O)CCCCC)[C@@H](O[C@@H]2O[C@@H](C)[C@H](OC(C)=O)[C@@H](O[C@@H]3O[C@@H](C)[C@H](OC(C)=O)[C@@H](O)[C@H]3O)[C@H]2OC(C)=O)[C@H]1O [MEZZETTIASIDE 4] | inactive | > 20 | 19.4 (≈ 24.5 µM) | > 20 | 15.4 (≈ 19.4 µM) | 6.2 (≈ 7.82 µM) | > 20 | > 20 |
| CCCCCCCCO[C@@H]1O[C@@H](C)[C@H](OC(=O)CCCCC)[C@@H](O[C@@H]2O[C@@H](C)[C@H](OC(C)=O)[C@@H](O[C@@H]3O[C@@H](C)[C@H](O)[C@@H](O)[C@H]3OC(C)=O)[C@H]2OC(C)=O)[C@H]1O [MEZZETTIASIDE 8] | inactive | > 20 | 19.7 (≈ 24.8 µM) | > 20 | > 20 | 8.2 (≈ 10.3 µM) | > 20 | > 20 |
| CCCCCCCCO[C@@H]1O[C@@H](C)[C@H](OC(=O)CCCCC)[C@@H](O[C@@H]2O[C@@H](C)[C@H](O)[C@@H](OC(C)=O)[C@H]2OC(C)=O)[C@H]1O [MEZZETTIASIDE 9] | inactive | > 20 | 5.4 (≈ 8.93 µM) | > 20 | 11.3 (≈ 18.7 µM) | > 20 | > 20 | > 20 |
| CCCCCCCCO[C@@H]1O[C@@H](C)[C@H](OC(=O)CCCCC)[C@@H](O[C@@H]2O[C@@H](C)[C@H](OC(C)=O)[C@@H](OC(C)=O)[C@H]2OC(C)=O)[C@H]1O [MEZZETTIASIDE 11] | inactive | > 20 | 6.1 (≈ 9.43 µM) | > 20 | 12.7 (≈ 19.6 µM) | 9 (≈ 13.9 µM) | 5.6 | > 20 |
| CCCCCCCCO[C@@H]1O[C@@H](C)[C@H](OC(=O)CCCCC)[C@@H](O[C@@H]2O[C@@H](C)[C@H](OC(C)=O)[C@@H](O)[C@H]2OC(C)=O)[C@H]1O [MEZZETTIASIDEIDE 10] | inactive | > 20 | > 20 | > 20 | > 20 | > 20 | > 20 | > 20 |
